For series [1], the target named is T1, Rac1 (Homo sapiens (Human), UniProt P63000). As to the kind of experiment: Rac Activation AlphaScreen Assay (RacI AS). Format: biochemical. The procedure:
2. Rac Activation AlphaScreen Assay (RacI AS)
AlphaScreen® assays were performed in 96-well microplates in a final reaction volume of 60 μL. Recombinant His-Rac1, recombinant GST-PBD (PAK Binding Domain), donor and acceptor beads (PerkinElmer), and inhibitors were incubated in exchange buffer (20 mM Tris pH 7.5, 50 mM NaCl, 1 mM MgCl2, 1 mM EDTA, 500 nM GTPyS (guanosine 5′-[Y-thio]triphosphate)) at 37° C. Readings were performed on a Tecan M 1000 pro microplate reader after 1 hour. Data was analyzed using the GraphPad Prism software (GraphPad Software, Inc.), and IC50 (dose leading to 50% disruption of complex) was calculated from the dose-response curves.
For orientation: Alpha assays give light when donor and acceptor beads are brought close together.

Series [2] deals with MCF-7 human breast cancer cell line. The series can be described thus: Cell Viability Assay (MCF7). In kind it is cell-based. Particulars: MCF7, three days after drug treatment. Here is the method: 1. Cell Viability Assay (MCF7)
In order to determine a compound's effect on cell viability, PrestoBlue assays were performed as previously described by Kuhn et al. (2013) with modifications. MCF-7 human breast cancer and IGR-1 human melanoma cell lines were seeded into 384-well plates 24 hours prior to addition of drug. Cells are treated with 0 to 100 μM (concentrations) of compound solubilized in DMSO, adjusting the final concentration of DMSO to 0.5% in the well. Three days after drug treatment, cell viability was measured by adding Cell Titer Glo (Promega.; cat. No. G7570) according to the manufacturer's instructions. Briefly, Cell Titer Glo Substrate is diluted in Cell Titer Glo Buffer making the Cell Titer Glo Reagent. Cell Titer Glo Reagent is added to each well, mixed for 2 minutes to lyse cell, and then luficerase signal is read on a plate reader. Data is analyzed using the GraphPad Prism software (GraphPad Software, Inc.), and IC50 (dose leading to 50% cell death) was calculated from the dose-response curves. The percentage of living cells was then computed by comparison with control wells. Kuhn, Jonas et al., Assay and Drug Development Technologies, March 2013, Label-Free Cytotoxicity Screening Assay by Digital Holographic Microscopy.

The subject of a further series is over 90 kinases. The series can be described thus: commercial kinase screen (KinaseScan by Eurofins Discovery). In kind it is binding. Particulars: at a concentration that was substantially inhibitory for Rac1. The procedure: (§1) The disclosed compounds in general have no or minimal activity against c-M et. Representative compounds were tested in a commercial kinase screen of over 90 kinases (KinaseScan by Eurofins Discovery).

Another series addresses c-M et (Homo sapiens (Human), UniProt P08581). As to the kind of experiment: commercial kinase screen (KinaseScan by Eurofins Discovery), c-Met. In kind it is binding. Particulars: at a concentration that was substantially inhibitory for Rac1. Here is the method:
as §1

Series [3] is described as follows: Mouse Liver Microsome (MLM) Stability Assay. Particulars: for microsomal CLint / MLM Clearance (μL/min/mg protein): mouse liver microsomes. In kind it is in vitro ADME. Here is the method: 5. Mouse Liver Microsome (MLM) Stability Assay
Incubation of test compounds with mouse liver microsomes in the presence of NADPH co-factor was used to assay the in vitro mouse liver microsome metabolic clearance rate. In the presence of the co-factor NADPH, which initiates the reaction, mouse liver microsomes were incubated with test compounds at 37° C. at fixed time intervals. After centrifugation, supernatants were measured by LC/M S. The amount of compound at each time interval was compared to the amount of compound present at the 0 minute timepoint and percentage compound remaining values were calculated. MLM intrinsic clearance (Clint) (μL/min/mg protein) is calculated based on compound half-life.
For orientation: Microsomes from liver hold many membrane-bound enzymes, among them those of drug oxidation.

The conditions of series [4]: oral administration in mice; cited from earlier work.
In a further series the target is Rac (Homo sapiens (Human), UniProt P63000). Particulars: versus NSC23766; cited from earlier work.
In series [5] the target is T1, Rac1. The series can be described thus: Rac Activation AlphaScreen Assay (RacI AS). Conditions: wild type Rac1, AlphaLisa assay; read-out: IC50 inhibitory concentration versus wild type Rac1. Format: biochemical.
In series [6] the test system is estrogen positive and HER2 positive breast cancer, prostate cancer, melanoma and colorectal cancer. Conditions: single agent and in combination with standard of care; cited from earlier work.
The mark [7] stands for this setting: Table 4, comparator compounds, read-out: IC50.
[8] abbreviates: Table 1, Formula I-A, read-out: Activity.
[9] abbreviates: NADPH, 37° C., read-out: MLM Clearance (μL/min/mg protein).
Where [10] appears, read: Table 2, Formula I-B, read-out: IC50.
[11] abbreviates: Table 3, other compounds of Formula I, read-out: IC50.

Here are results for 18 compounds from US20250346604A1, “TRIAZOLOPYRIDAZINE COMPOUNDS USEFUL AS RAC1 INHIBITORS” (Revere Pharmaceuticals, priority 2022, published 2025).

Where two headings read alike, the source gives them in different places.

c-M et, sequence (P08581 25-1390): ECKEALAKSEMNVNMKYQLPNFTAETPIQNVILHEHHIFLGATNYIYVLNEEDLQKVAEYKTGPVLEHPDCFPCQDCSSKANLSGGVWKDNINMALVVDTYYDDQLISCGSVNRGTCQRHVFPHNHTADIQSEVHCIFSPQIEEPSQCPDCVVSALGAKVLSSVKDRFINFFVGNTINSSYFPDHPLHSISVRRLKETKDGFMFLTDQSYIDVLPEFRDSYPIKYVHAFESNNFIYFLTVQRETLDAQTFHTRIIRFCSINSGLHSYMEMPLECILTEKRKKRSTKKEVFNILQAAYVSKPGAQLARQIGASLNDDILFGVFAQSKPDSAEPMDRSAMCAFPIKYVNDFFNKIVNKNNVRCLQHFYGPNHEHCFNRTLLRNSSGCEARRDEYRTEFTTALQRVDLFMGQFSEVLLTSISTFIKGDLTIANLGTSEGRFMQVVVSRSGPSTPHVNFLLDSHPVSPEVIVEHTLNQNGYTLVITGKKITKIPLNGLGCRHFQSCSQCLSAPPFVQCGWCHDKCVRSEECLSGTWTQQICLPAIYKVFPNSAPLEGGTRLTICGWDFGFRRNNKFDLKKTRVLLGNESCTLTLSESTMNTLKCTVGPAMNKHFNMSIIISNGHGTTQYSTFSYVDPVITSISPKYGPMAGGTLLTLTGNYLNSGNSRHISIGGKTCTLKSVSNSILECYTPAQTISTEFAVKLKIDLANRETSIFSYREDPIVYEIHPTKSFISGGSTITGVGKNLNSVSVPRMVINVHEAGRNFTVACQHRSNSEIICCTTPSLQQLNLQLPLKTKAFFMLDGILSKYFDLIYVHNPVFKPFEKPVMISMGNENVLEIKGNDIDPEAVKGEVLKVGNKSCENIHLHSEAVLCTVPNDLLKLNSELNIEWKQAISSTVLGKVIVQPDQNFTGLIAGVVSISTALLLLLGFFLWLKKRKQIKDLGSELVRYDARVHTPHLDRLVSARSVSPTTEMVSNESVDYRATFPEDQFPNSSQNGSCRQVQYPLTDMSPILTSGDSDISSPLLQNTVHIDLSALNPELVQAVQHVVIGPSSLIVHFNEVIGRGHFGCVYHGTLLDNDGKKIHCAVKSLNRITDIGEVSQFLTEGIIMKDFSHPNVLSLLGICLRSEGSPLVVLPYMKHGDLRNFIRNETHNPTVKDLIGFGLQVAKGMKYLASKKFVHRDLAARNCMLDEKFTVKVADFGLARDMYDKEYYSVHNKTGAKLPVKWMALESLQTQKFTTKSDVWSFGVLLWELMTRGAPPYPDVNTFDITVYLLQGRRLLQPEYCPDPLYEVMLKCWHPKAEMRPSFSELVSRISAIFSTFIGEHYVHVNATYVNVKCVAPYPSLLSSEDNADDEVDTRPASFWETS

With `COc1ccc(C(=O)Nc2cccc(-c3ccc4nnc(-c5ccc(C)o5)n4n3)c2)cc1OC` [Comparator 1, reference compound], the IC50 on Rac1 [1] (setting [7]) is 1 to 10 µM; on Rac1 [1] (read-out: Rac1 IC50) it was above 5 µM.
Consider `COc1cc(C(=O)Nc2cccc(-c3ccc4nnc(-c5ccc(C)o5)n4n3)c2)cc(OC)c1OC` [Comparator 2, reference compound], for which the values for the IC50 on Rac1 [1] (setting [7]) and on Rac1 [1] (read-out: Rac1 IC50) were above 10 µM and above 5 µM, respectively.
The matching figures for `COc1ccc(OC)c(C(=O)Nc2cccc(-c3ccc4nnc(-c5ccc(C)o5)n4n3)c2)c1` [Comparator 3, reference compound]: above 10 µM and above 5 µM.
For `COc1cccc(C(=O)Nc2cccc(-c3ccc4nnc(-c5ccc(C)o5)n4n3)c2)c1` [Compound 100], the figures for the IC50 (in series [2]; at Rac1 [1] (setting [8]); on Rac1 [1] (read-out: Rac1 IC50)) were 11.3 µM, at most 1 µM and 0.08 µM, respectively.
As to `Cc1ccc(-c2nnc3ccc(-c4cccc(NC(=O)c5cccc(Cl)c5)c4)nn23)o1` [Compound 102, 3-chloro-N-(3-(3-(5-methylfuran-2-yl)-[1,2,4]triazolo[4,3-b]pyridazin-6-yl)phenyl)benzamide], the IC50 in [2] (Homo sapiens, 72 h) is 1.4 µM; on Rac1 [1] (setting [8]) it was at most 1 µM; at Rac1 [1] (read-out: Rac1 IC50) it was 0.52 µM. Also, the “activity against all kinases tested” value in the series on over 90 kinases is “inactive”. Also, the “activity against c-Met” value at c-M et was “inactive”. Further, the microsomal CLint in [3] (setting [9]) is 19.7 µL/min/mg.
For `Cc1ccc(-c2nnc3ccc(-c4cccc(NC(=O)c5ccc(F)c(Cl)c5)c4)nn23)o1` [Compound 103, 3-chloro-4-fluoro-N-(3-(3-(5-methylfuran-2-yl)-[1,2,4]triazolo[4,3-b]pyridazin-6-yl)phenyl)benzamide], the IC50 is 2.3 µM in series [2] (Homo sapiens, 72 h); at most 1 µM at Rac1 [1] (setting [8]); 0.43 µM on Rac1 [1] (read-out: Rac1 IC50). In addition, the microsomal CLint in series [3] (setting [9]) worked out at 4.5 µL/min/mg.
Consider `Cc1ccc(-c2nnc3ccc(-c4cccc(NC(=O)c5cccc(F)c5)c4)nn23)o1` [Compound 105], for which the IC50 in series [2] was 2 µM; on Rac1 [1] (setting [8]) it was at most 1 µM; on Rac1 [1] (read-out: Rac1 IC50), 0.15 µM. Moreover, the “MLM Clearance (μL/min/mg protein)” value in series [3] (NADPH, 37° C.) was found to be 38.7 μL/min/mg protein.
As to `Cc1ccc(-c2nnc3ccc(-c4cccc(NC(=O)c5ccc(F)c(F)c5)c4)nn23)o1` [Compound 106], the values for the IC50 (in series [2]; at Rac1 [1] (setting [8]); at Rac1 [1] (read-out: Rac1 IC50)) were 3.5 µM, at most 1 µM and 0.27 µM, respectively. Besides, the MLM clearance result in series [3] is given as “below 50 μL/min/mg protein”. Moreover, the “MLM Clearance (μL/min/mg protein)” value in series [3] (NADPH, 37° C.) is listed as 28.2 μL/min/mg protein.
On to `Cc1ccc(-c2nnc3ccc(-c4cccc(NC(=O)c5cccc(SC(C)C)c5)c4)nn23)o1` [Compound 109, 3-(isopropylthio)-N-(3-(3-(5-methylfuran-2-yl)-[1,2,4]triazolo[4,3-b]pyridazin-6-yl)phenyl)benzamide], for which, on Rac1 [1] (setting [8]), the IC50 was at most 1 µM.
On to `CCc1cccc(C(=O)Nc2cccc(-c3ccc4nnc(-c5ccc(C)o5)n4n3)c2)c1` [Compound 111, 3-ethyl-N-(3-(3-(5-methylfuran-2-yl)-[1,2,4]triazolo[4,3-b]pyridazin-6-yl)phenyl) benzamide], for which the IC50 on Rac1 [1] (setting [8]) is at most 1 µM. In addition, the MLM clearance result in series [3] was “below 50 μL/min/mg protein”.
Consider `CCc1cc(C(=O)Nc2cccc(-c3ccc4nnc(-c5ccc(C)o5)n4n3)c2)ccc1F` [Compound 114, 3-ethyl-4-fluoro-N-(3-(3-(5-methylfuran-2-yl)-[1,2,4]triazolo[4,3-b]pyridazin-6-yl)phenyl)benzamide], for which, on Rac1 [1] (setting [8]), the IC50 was at most 1 µM. Besides, the microsomal CLint in series [3] (mouse, read-out: MLM clearance) is below 50 µL/min/mg.
`Cc1ccc(-c2nnc3ccc(-c4cccc(NC(=O)c5cccc(Cl)c5)c4)nn23)o1` [Compound 119, 3-chloro-N-(3-(3-(5-(methyl-d3)furan-2-yl)-[1,2,4]triazolo[4,3-b]pyridazin-6-yl)phenyl) benzamide]: the IC50 in [2] is 6.3 µM; at Rac1 [1] (read-out: Rac1 IC50), 1.5 µM.
Regarding `COc1cccc(C(=O)Nc2cccc(-c3ccc4nnc(-c5cncs5)n4n3)c2)c1` [Compound 200], the IC50 in series [2] is 1.8 µM; at Rac1 [1] (setting [10]) it was at most 1 µM; at Rac1 [1] (read-out: Rac1 IC50), 0.24 µM. Besides, the “MLM Clearance (μL/min/mg protein)” value in [3] (NADPH, 37° C.) is 54 μL/min/mg protein.
In the case of `O=C(Nc1cccc(-c2ccc3nnc(-c4cncs4)n3n2)c1)c1ccc(F)cc1` [Compound 201, 4-fluoro-N-(3-(3-(thiazol-5-yl)-[1,2,4]triazolo[4,3-b]pyridazin-6-yl)phenyl)benzamide], the IC50 in series [2] (Homo sapiens, 72 h) was 3.1 µM; on Rac1 [1] (setting [10]), at most 1 µM; at Rac1 [1] (read-out: Rac1 IC50), 0.17 µM. The microsomal CLint in series [3] (setting [9]) turned out to be 15.5 µL/min/mg.
Turning to `Cc1ccc(-c2nnc3ccc(-c4cccc(NC(=O)c5cccc(Cl)c5)c4)nn23)s1` [Compound 303], the results for the IC50 (in [2]; on Rac1 [1] (setting [11]); on Rac1 [1] (read-out: Rac1 IC50)) were above 10 µM, 1 to 10 µM and above 5 µM, respectively.
The matching figures for `Cc1ccc(-c2nnc3ccc(-c4cccc(NC(=O)c5ccc(F)cc5)c4)nn23)s1` [Compound 304]: 19.8 µM, at most 1 µM and 0.69 µM.
On to `CCn1c2ccccc2c2cc(Nc3ccnc(NCCCN4CCOCC4)n3)ccc21` [EHop-016], for which the systemic exposure entry in series [4] is given as “low systemic exposure”. Further, the “efficiency as an inhibitor of Rac activity relative to NSC23766” value at Rac is on record as 100 fold. Also, the IC50 at Rac1 [5] was around 10 µM.
`FC(F)(F)c1ccc2c(SCCCCCCn3cnc(CN4CCOCC4)c3)ccnc2c1` [GY S32661]: the “activity against animal models of cancer” value in [6] was “very good activity”.
